Patent publication US5030631A, “Tricylclic arylsulfonamides” (Schering Corporation, priority 1989, dated 1991)

Legend:
[1] = test system: conscious spontaneously hypertensive rats (SHR); assay: Antihypertensive Activity in Rats (conscious spontaneously hypertensive rats, SHR); type: in vivo, rat; details: for Change in blood pressure (mean change in mean blood pressure): male SHR, placebo -5
Description: The ability of the compounds of the present invention to lower blood pressure can be assessed in conscious spontaneously hypertensive rats (SHR). SHR (males) are purchased from Taconic Farms, Germantown, N.Y. and are approximately 16-17 weeks old when used to test the pharmacological effects. Rats, under ether anesthesia, receive a polyethylene tubing (PE50 fused to PE10) inserted via the caudal artery into the abdominal aorta to just below the renal arteries. This catheter is connected to a Spectromed pressure transducer and the direct arterial blood pressure is continuously recorded on an oscillographic recorder. Heart rate is determined via manual count of the pressure waves at a fast paper trace. […] If drugs are administered orally, compounds are suspended in 0.4% aqueous methylcellulose and delivered via oral gavage with an oral feeding needle. Rats are fasted overnight prior to intravenous or oral tests. All incisions are closed and the rats are placed into plexiglass restrainers where they quickly regain consciousness. At least 90 minutes are allowed for the rats to fully regain consciousness and achieve stable blood pressures and heart rates.
Intravenously administered drugs are usually given as a rapid bolus. […] In some cases drugs are given by constant intravenous infusion. The 0.4% aqueous methylcellulose is used as a placebo treatment for compounds given orally. Values are presented as the mean changes in mean blood pressure (MBP) in millimeters of mercury (mm Hg). Drug induced changes are compared with the changes in an appropriate placebo group. The compound is administered intravenously at a dosage of 1.0 to 5.0 milligrams per kilogram (mpk) body weight. The following results are representative for 1-((7-bromo-9H-fluoren-2-yl)sulfonyl)hexahydro-1H-1,4-diazepine from examples 4 and 27 (Compound A): […]

[2] = target: T1, myosin light chain kinase (MLCK) (Gallus gallus, UniProt P11799); assay: Calcium-Calmodulin Independent Myosin Light Chain Kinase (MLCK) Assay; type: biochemical, chicken; details: for IC50: calmodulin-independent MLCK (trypsin digested, chicken gizzard), peptide KKRPQRATSNVFS-NH2 50 μM, 100 uM ATP, pH 7.2; for inhibition at 100 µM: 100 μM compound, calmodulin-independent MLCK, printed in the IC50 (μM) column, read-out: percent inhibition at a dosage of 100 μM
T1 construct: Calmodulin-independent myosin light chain kinase(CIM) of greater than 95 percent homogeneity is prepared by trypsin digestion of calmodulin-dependent MLCK; from tissue; host or cells: chicken gizzard (purified from tissue, then digested with TPCK-treated trypsin)
T1 sequence (P11799 1217-1713 limits assumed): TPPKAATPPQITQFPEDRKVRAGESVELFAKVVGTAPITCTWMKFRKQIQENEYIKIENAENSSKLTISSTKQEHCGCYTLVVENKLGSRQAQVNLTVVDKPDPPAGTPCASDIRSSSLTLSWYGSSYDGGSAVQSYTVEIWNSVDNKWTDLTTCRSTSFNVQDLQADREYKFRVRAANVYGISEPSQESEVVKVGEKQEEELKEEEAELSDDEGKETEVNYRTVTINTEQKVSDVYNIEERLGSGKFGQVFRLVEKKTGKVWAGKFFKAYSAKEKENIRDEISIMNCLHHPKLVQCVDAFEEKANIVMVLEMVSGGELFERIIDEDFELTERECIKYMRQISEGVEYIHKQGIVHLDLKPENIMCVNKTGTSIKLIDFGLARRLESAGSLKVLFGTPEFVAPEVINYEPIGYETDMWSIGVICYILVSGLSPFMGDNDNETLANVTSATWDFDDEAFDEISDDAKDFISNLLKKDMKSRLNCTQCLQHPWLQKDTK
Experimental: A. Enzyme Preparation. Calmodulin-independent myosin light chain kinase(CIM) of greater than 95 percent homogeneity is prepared by trypsin digestion of calmodulin-dependent MLCK which is prepared from chicken gizzard by the method of Ngai, P. J., Carruthers, C. A. and Walsh, M. P. (1984), Biochem. J. 218, pages 863-870, through the step employing diethylaminoethyl(DEAE)-Sephacel®, trademark of Pharmacia Fine Chemicals, Inc., New Market, N.J. 08854. The kinase solution containing 8.5 mg protein is adjusted to 0.5 mg/ml in 20 mM Tris/HCl, pH 7.5, 2 mM EGTA. An aliquot of 1 mg/ml of N-tosyl-L-phenylalanine-chloromethyl ketone (TPCK) treated trypsin is added to a final trypsin:MLCK ratio of 1:7.5 (mg/mg protein). Typically, the reaction is incubated for 6 minutes at 25° C.
MLCK is assayed using the synthetic peptide substrate KKRPQRATSNVFS-NH2, a thirteen amino acid fragment with a sequence corresponding to residues 11-23 of gizzard light chain except for a carboxy-terminal serine-NH2 as described in Kemp, G. E., Pearson, R. B. and House, C. (1983) Proc. Nat. Acad. Sci. U.S.A. 80, pages 7471-7475. The standard assay is performed in a total volume of 100 microliters (μl) containing 20 mM Tris-HCl, pH 7.2, 10 mM MgCl2, 100 uM [γ-^32 P] ATP with a specific activity of 300-1000 counts per minute (cpm) per picomole (pmol), 50 μM KKRPQRATSNVFS-NH2, 0.02 μg enzyme. Calmodulin was added at the concentrations indicated in the text and tables, and assays contained 1 mM EGTA or 1 mM EGTA plus approximately 200 μM excess free calcium when calcium-dependent activity was measured. Calcium-independent activity is negligible in the calcium dependent gizzard enzyme. Assays are initiated by addition of adenosine triphosphate (ATP) and stopped by addition of 200 μM HCl. Phosphate incorporated into the basic substrate is measured by spotting an aliquot on phosphocellulose filter paper, washing and counting the papers. The results are given in IC50 values. An IC50 indicates the dosage of compound in micromoles (μM) which inhibits MLCK by 50 percent. […] Results given in percentages (%) indicates the percent inhibition at a dosage of 100 μM.

IC50 [2] | SMILES | further results
76 µM | O=S(=O)(c1ccc2c(c1)Cc1cc(Br)ccc1-2)N1CCCNCC1 [Compound A, 1-((7-bromo-9H-fluoren-2-yl)sulfonyl)hexahydro-1H-1,4-diazepine] | Change in blood pressure (mean change in mean blood pressure) ([1]; intravenous, 1.0 mpk): -13 mm Hg; reduction in blood pressure upon intravenous administration ([1]; intravenous, 1.0 to 5.0 mpk, SHR): dose-dependent reduction in blood pressure; Change in blood pressure (mean change in mean blood pressure) ([1]; intravenous, 2.5 mpk): -25 mm Hg; magnitude of the effect at the highest dose compared with the placebo ([1]; intravenous, 5.0 mpk, SHR, compared with placebo): marked reduction; Change in blood pressure (mean change in mean blood pressure) ([1]; intravenous, 5.0 mpk): -30 mm Hg; activity upon oral administration ([1]; oral, 50 mpk, SHR): does not show activity
17 µM | O=S(=O)(c1cccc2cc3ccccc3cc12)N1CCCNCC1 [Example 16] | –
50 µM | O=S(=O)(c1ccc2cc3ccccc3cc2c1)N1CCCNCC1 [Example 17] | –
100 µM | O=S(=O)(c1cccc2nc3ccccc3cc12)N1CCCNCC1 [Example 21] | –
32 µM | O=S(=O)(c1ccc2ncc3ccccc3c2c1)N1CCCNCC1 [Example 22] | –
65 µM | O=S(=O)(c1ccc2c(cnc3ccccc32)c1)N1CCCNCC1 [Example 23] | –
35 µM | O=S(=O)(c1cccc2c1cnc1ccccc12)N1CCCNCC1 [Example 24] | –
5 µM | O=S(=O)(c1c2ccccc2cc2ccccc12)N1CCCNCC1 [Example 25] | –
– | N=C(N)N1CCCN(S(=O)(=O)c2ccc3c(c2)Cc2cc(Br)ccc2-3)CC1 [Example 28] | inhibition at 100 µM [2]: 55%
– | CC1(C)c2cc(Br)ccc2-c2ccc(S(=O)(=O)N3CCCNCC3)cc21 [Example 29] | inhibition at 100 µM [2]: 40%

SMILES | IC50 [2] | further results
O=S(=O)(c1cc2ccccc2c2ccccc12)N1CCCNCC1 [Example 18] | 4.8 µM | –
O=S(=O)(c1ccc2c(ccc3ccccc32)c1)N1CCCNCC1 [Example 19] | 11 µM | –
O=S(=O)(c1ccc2c(Br)cc3ccccc3c2c1)N1CCCNCC1 [Example 20] | 10 µM | –
O=S(=O)(c1cc2ccccc2c2ccccc12)N1CCCNCC1 [Example 26] | 3.5 µM | –
